Results on 19 molecules are retold here after PMC6522510 (Nature Communications, 2019).

What all share (set-up): species or system AML cell lines (8); Primary HTS, single concentration about 10 uM, Cell Titer Glo viability; log10 luminescence, per cent inhibition relative to cycloheximide control
Common to all, as to details: 72 h, relative to cycloheximide control, log10 luminescence; inhibitor
In general terms: In ATP-based viability assays light output follows the ATP content of the culture.

The subject of test [1] is ML-2.
Test [2] has as its system MV4-11.
Test [3] relates to CMK.
In test [4] the test system is CHRF288-11.
Test [5] relates to CMS.
Test [6] deals with MOLM-13.
Test [7] concerns M07e.
Test [8] deals with U937.

In the case of `Nc1c(C(=O)c2cccc(-c3ccncc3)c2)cnn1-c1ccc(F)cc1F` [SJ000581077-1], the ML-2 %inh in test [1] was 15.89%. Also, the MV4-11 %inh in test [2] was 3.251%. Further, the CMK %inh in test [3] is listed as 75.1%. In test [4], the CHRF288-11 %inh is listed as 21.24%. The CMS %inh in test [5] is given as 10.55%. The MOLM-13 %inh in test [6] worked out at 13.91%. In addition, the M07e %inh in test [7] stood at 29.92%. In test [8], the U937 %inh is 32.29%.

For the molecule `Cn1cc(C2=C(c3cn(C)c4cc(Cl)ccc34)C(=O)NC2=O)c2ccccc21` [SJ000581078-1], the ML-2 %inh in test [1] is 61.36%. For the same molecule, the MV4-11 %inh in test [2] is 84.42%. The CMK %inh in test [3] was 127.5%. Moreover, in test [4], the CHRF288-11 %inh is recorded as 127%. Further, in test [5], the CMS %inh amounted to 103.6%. Besides, in test [6], the MOLM-13 %inh stood at 85.69%. In addition, in test [7], the M07e %inh is reported as 100%. The U937 %inh in test [8] was found to be 87.46%.

Regarding `Cc1ccc2c(c1)c(C1=C(c3cn(C)c4ccccc34)C(=O)NC1=O)cn2C` [SJ000581079-1], in test [1], the ML-2 %inh came out at 12.05%. In test [2], the MV4-11 %inh worked out at 11.84%. Also, the CMK %inh in test [3] stood at 50.85%. Also, the CHRF288-11 %inh in test [4] is 31.79%. For the same molecule, the CMS %inh in test [5] is 12.87%. Besides, in test [6], the MOLM-13 %inh came out at 61.76%. The same molecule came in with an M07e %inh in test [7] of 21.17%. The U937 %inh in test [8] is 21.19%.

Consider `Cn1cc(C2=C(c3c4n(c5ccccc35)CCNC4)C(=O)NC2=O)c2ccccc21` [SJ000581080-1], for which the ML-2 %inh in test [1] turned out to be 12.57%. Moreover, in test [2], the MV4-11 %inh came out at 15.28%. Besides, the CMK %inh in test [3] is given as 60.56%. The CHRF288-11 %inh in test [4] was determined as 19.49%. Besides, the CMS %inh in test [5] is given as 16.83%. In addition, the MOLM-13 %inh in test [6] is on record as 62.95%. The same molecule registered an M07e %inh in test [7] of 25.69%. Further, the U937 %inh in test [8] was determined as 18.44%.

Take `COc1ccc(OC)c(C2=C(c3cn(C)c4ccccc34)C(=O)NC2=O)c1` [SJ000581081-1]: in test [1], the ML-2 %inh is -0.4206%. Further, the MV4-11 %inh in test [2] is listed as 1.033%. Further, in test [3], the CMK %inh was found to be 3.003%. The CHRF288-11 %inh in test [4] is on record as 7.567%. Besides, the CMS %inh in test [5] is given as 0.8246%. Further, the MOLM-13 %inh in test [6] was -2.282%. In test [7], this molecule had an M07e %inh of 2.921%. The U937 %inh in test [8] is listed as -0.9957%.

For `COc1ccc2c(C3=C(c4cn(C)c5ccccc45)C(=O)NC3=O)cn(C)c2c1` [SJ000581082-1], in test [1], the ML-2 %inh was 51.13%. For the same molecule, the MV4-11 %inh in test [2] is recorded as 77.51%. Also, in test [3], the CMK %inh came to 107.7%. Also, in test [4], the CHRF288-11 %inh amounted to 125.3%. In addition, the CMS %inh in test [5] was 102.2%. Moreover, the MOLM-13 %inh in test [6] turned out to be 81.86%. Moreover, the M07e %inh in test [7] is given as 103.9%. In test [8], the U937 %inh was determined as 79.84%.

On to `O=[N+]([O-])c1ccc2c(c1)C(c1ccccc1Cl)=Nc1cn[nH]c1N2` [SJ000581083-1], for which, in test [1], the ML-2 %inh is -0.08337%. The MV4-11 %inh in test [2] is given as 0.3353%. The CMK %inh in test [3] is -5.045%. Further, the CHRF288-11 %inh in test [4] is given as -0.2746%. For the same molecule, the CMS %inh in test [5] is listed as -0.274%. Besides, in test [6], the MOLM-13 %inh is given as -2.48%. In test [7], this molecule returned an M07e %inh of 4.12%. Further, the U937 %inh in test [8] was -1.165%.

With `Cn1cc(C2=C(c3cn(C)c4c(N)cccc34)C(=O)NC2=O)c2ccccc21` [SJ000581084-1], the ML-2 %inh in test [1] amounted to 31.97%. The MV4-11 %inh in test [2] was 35.68%. In test [3], the CMK %inh worked out at 34.34%. Also, the CHRF288-11 %inh in test [4] is listed as 31.5%. Also, in test [5], the CMS %inh is 26.64%. The MOLM-13 %inh in test [6] was determined as 57.26%. This molecule showed an M07e %inh in test [7] of 30.04%. The U937 %inh in test [8] was 30.59%.

Consider `COC[C@H](N=C1NC(=O)/C(=C/c2ccc3ncccc3c2)S1)c1ccccc1` [SJ000581086-1], for which the ML-2 %inh in test [1] worked out at 2.549%. In addition, in test [2], the MV4-11 %inh is recorded as -0.3199%. The CMK %inh in test [3] worked out at 5.986%. For the same molecule, in test [4], the CHRF288-11 %inh was found to be 2.677%. Further, in test [5], the CMS %inh is recorded as 4.472%. Further, the MOLM-13 %inh in test [6] was -1.579%. For the same molecule, the M07e %inh in test [7] is given as 15.62%. For the same molecule, the U937 %inh in test [8] came out at 4.246%.

As to `Fc1ccc(-c2c(-c3ccncc3)[nH]c3cccnc23)cc1` [SJ000581088-1], the ML-2 %inh in test [1] is listed as -1.446%. Further, the MV4-11 %inh in test [2] is listed as 0.5271%. Further, in test [3], the CMK %inh is -0.07997%. The CHRF288-11 %inh in test [4] is 1.888%. The CMS %inh in test [5] was found to be 0.767%. In addition, the MOLM-13 %inh in test [6] is recorded as -2.723%. The M07e %inh in test [7] worked out at 3.19%. For the same molecule, in test [8], the U937 %inh came to 1.73%.

In the case of `N#CCn1c(=O)c(Oc2ccc(F)cc2F)cc2cnc(NC3CCOCC3)nc21` [SJ000581089-1], the ML-2 %inh in test [1] was determined as 0.2559%. Moreover, the MV4-11 %inh in test [2] is 0.2945%. In test [3], the CMK %inh is 1.27%. In addition, the CHRF288-11 %inh in test [4] came out at 0.7869%. In addition, in test [5], the CMS %inh was 1.167%. In addition, the MOLM-13 %inh in test [6] was determined as 79.15%. Besides, in test [7], the M07e %inh is reported as 5.15%. Also, the U937 %inh in test [8] was found to be 0.6532%.

Take `Nc1c(C(=O)c2cccc(C#CCN3CCCCC3)c2)cnn1-c1ccc(F)cc1` [SJ000581090-1]: the ML-2 %inh in test [1] was 0.9731%. For the same molecule, the MV4-11 %inh in test [2] stood at 1.177%. Besides, the CMK %inh in test [3] is given as -1.859%. For the same molecule, in test [4], the CHRF288-11 %inh is reported as 2.1%. The CMS %inh in test [5] was determined as 8.688%. Besides, in test [6], the MOLM-13 %inh is on record as 0.3011%. For the same molecule, the M07e %inh in test [7] worked out at 8.075%. In test [8], the U937 %inh was 7.38%.

In the case of `O=c1[nH]c2nc(NC3CCOCC3)ncc2cc1Oc1ccc(F)cc1F` [SJ000581091-1], in test [1], the ML-2 %inh is reported as -1.12%. In addition, the MV4-11 %inh in test [2] stood at 0.8036%. Moreover, the CMK %inh in test [3] was -0.7252%. The CHRF288-11 %inh in test [4] came out at 2.671%. Besides, the CMS %inh in test [5] is reported as 4.57%. In addition, in test [6], the MOLM-13 %inh was -2.415%. In test [7], this molecule came in with an M07e %inh of 7.401%. The U937 %inh in test [8] came to 1.694%.

As for `COc1cccc(C2=C(c3cn(C)c4cccc(OC)c34)C(=O)NC2=O)c1` [SJ000581093-1], in test [1], the ML-2 %inh stood at 1.141%. For the same molecule, the MV4-11 %inh in test [2] was 0.2916%. In test [3], the CMK %inh was found to be 64.38%. For the same molecule, the CHRF288-11 %inh in test [4] is 15.23%. Moreover, the CMS %inh in test [5] is reported as 2.878%. Moreover, in test [6], the MOLM-13 %inh came to 14.52%. Further, the M07e %inh in test [7] came out at 15.31%. In addition, the U937 %inh in test [8] was 7.981%.

As for `Cn1c(=O)c(Sc2ccccc2F)cc2cnc(NC3CCOCC3)nc21` [SJ000581094-1], in test [1], the ML-2 %inh is -0.9832%. In addition, in test [2], the MV4-11 %inh came to 1.745%. Also, the CMK %inh in test [3] was -1.429%. Moreover, the CHRF288-11 %inh in test [4] was 5.078%. The CMS %inh in test [5] is -0.09142%. Moreover, in test [6], the MOLM-13 %inh is reported as -2.304%. Also, the M07e %inh in test [7] stood at 79.34%. In addition, the U937 %inh in test [8] is on record as -2.114%.

`Cn1cc(C2=C(c3cn(C)c4c([N+](=O)[O-])cccc34)C(=O)NC2=O)c2ccccc21` [SJ000581096-1]: the ML-2 %inh in test [1] is recorded as -1.675%. The MV4-11 %inh in test [2] is reported as 1.039%. In test [3], the CMK %inh is recorded as 1.442%. For the same molecule, in test [4], the CHRF288-11 %inh is -0.1815%. Further, the CMS %inh in test [5] is -0.5679%. Moreover, in test [6], the MOLM-13 %inh is listed as -1.995%. In addition, the M07e %inh in test [7] is on record as 3.87%. The U937 %inh in test [8] is on record as -1.424%.

As for `Cn1cc(C2=C(c3cccnc3)C(=O)NC2=O)c2ccccc21` [SJ000581097-1], the ML-2 %inh in test [1] stood at 3.521%. Besides, in test [2], the MV4-11 %inh worked out at 3.908%. For the same molecule, the CMK %inh in test [3] is 8.732%. Further, the CHRF288-11 %inh in test [4] amounted to 42.59%. The CMS %inh in test [5] came out at 3.929%. Also, in test [6], the MOLM-13 %inh is recorded as 6.704%. The molecule also displayed an M07e %inh in test [7] of 1.519%. The U937 %inh in test [8] is on record as -1.738%.

As for `Cn1cc(C2=C(c3cn(C)c4ccc(Cl)cc34)C(=O)NC2=O)c2ccccc21` [SJ000581098-1], in test [1], the ML-2 %inh is listed as 3.034%. In addition, the MV4-11 %inh in test [2] stood at 5.255%. The CMK %inh in test [3] is on record as 47.95%. In addition, the CHRF288-11 %inh in test [4] is on record as 10.98%. In addition, in test [5], the CMS %inh was determined as 0.498%. Further, the MOLM-13 %inh in test [6] is given as 13.33%. Moreover, the M07e %inh in test [7] is recorded as 13.21%. Further, in test [8], the U937 %inh was found to be 4.952%.

As to `Cn1cc(C2=C(c3cn(C)c4ncccc34)C(=O)NC2=O)c2ccccc21` [SJ000581101-1], the ML-2 %inh in test [1] was determined as 0.3677%. The MV4-11 %inh in test [2] turned out to be 0.9422%. Moreover, the CMK %inh in test [3] stood at 41.81%. In addition, the CHRF288-11 %inh in test [4] is recorded as 23.35%. In addition, the CMS %inh in test [5] is listed as 2.698%. In addition, the MOLM-13 %inh in test [6] is given as 47.28%. Besides, the M07e %inh in test [7] came to 5.727%. For the same molecule, the U937 %inh in test [8] is on record as 8.822%.
